The values that follow come from ChEMBL document CHEMBL4368907 (J Med Chem, 2019).

Data set [1] in a line: Drug metabolism in Ellegaard Gottingen minipig plasma assessed as C18d-gammaGlu-(OEG)2-Asp-Phe(4sm)-Nle-Gly-Trp-Nle-DMeAspOH peptide metabolite formation at 5 nmol/kg, iv administered as single dose by LC-MS/MS analysis. In kind it is ADME, organism-based, Sus scrofa. As to conditions: pig, in vivo.
Data set [2] is described as follows: Toxicity in lean Landrace Yorkshire Duroc pig at 30 nmol/kg, sc measured up to 96 hrs post dose. The data set is classed as organism-based, Sus scrofa. As to conditions: in vivo.
Data set [3] can be described thus: Protein binding in Ellegaard Gottingen minipig plasma at 500 nM after 2 hrs by LC-MS analysis. The data set is classed as ADME, cell-free, Sus scrofa. The note with it: pig, read-out: PPB (converted).
Data set [4] has as its system Sus scrofa. The data set is described as follows: Anti-obesity activity in lean Landrace Yorkshire Duroc pig assessed as food intake at 30 nmol/kg, sc measured at 48 to 72 hrs post dose (reference value: 1.8 to 2.1 kg). The data set is classed as functional.
For data set [5], the system named is Sus scrofa. The data set is described as follows: Anti-obesity activity in lean Landrace Yorkshire Duroc pig assessed as food intake at 30 nmol/kg, sc measured up to 24 hrs post dose (reference value: 1.8 to 2.1 kg). In kind it is functional.
Data set [6] in a line: Plasma concentration in lean Landrace Yorkshire Duroc pig at 30 nmol/kg, sc measured after 96 hrs post dose. The data set is classed as ADME, organism-based, Sus scrofa.
The nature of data set [7]: Drug metabolism in sodium phosphate buffer assessed as (2R,5S,8S,14S,17S,21S,44S)-8-((1H-indol-3-yl)methyl)-2-(((S)-1-amino-1-oxo-3-phenylpropan-2-yl)(methyl)carbamoyl)-5,14-dibutyl-3-methyl-4,7,10,13,16,19,23,32,41,46-decaoxo-17-(4-(sulfomethyl)benzyl)-25,28,34,37-tetraoxa-3,6,9,12,15,18,22,31,40,45-decaazadohexacontane-1,21,44,62-tetracarboxylic acid formation at 1 mM at pH 7.4 at 37 degC after 1 to 2 weeks by UHLPC-UV analysis.

Data set [8] has as its system Sus scrofa. The data set is described as follows: Anti-obesity activity in lean Landrace Yorkshire Duroc pig assessed as food intake at 30 nmol/kg, sc measured at 72 to 96 hrs post dose (reference value: 1.8 to 2.1 kg). The data set is classed as functional.
In data set [9] the test system is Sus scrofa. Nature of the data set: Anti-obesity activity in lean Landrace Yorkshire Duroc pig assessed as food intake at 30 nmol/kg, sc measured at 24 to 48 hrs post dose (reference value: 1.8 to 2.1 kg). The data set is classed as functional.
A short description of data set [10]: Drug metabolism in Ellegaard Gottingen minipig plasma assessed as C18d-gammaGlu-(OEG)2-Asp-Phe(4sm)-OH peptide metabolite formation at 5 nmol/kg, iv administered as single dose by LC-MS/MS analysis. As to conditions: pig, in vivo. In kind it is ADME, organism-based, Sus scrofa.
Data set [11] addresses T1, Cholecystokinin receptor type A (Homo sapiens, UniProt P32238).
T1 sequence (P32238 whole entry): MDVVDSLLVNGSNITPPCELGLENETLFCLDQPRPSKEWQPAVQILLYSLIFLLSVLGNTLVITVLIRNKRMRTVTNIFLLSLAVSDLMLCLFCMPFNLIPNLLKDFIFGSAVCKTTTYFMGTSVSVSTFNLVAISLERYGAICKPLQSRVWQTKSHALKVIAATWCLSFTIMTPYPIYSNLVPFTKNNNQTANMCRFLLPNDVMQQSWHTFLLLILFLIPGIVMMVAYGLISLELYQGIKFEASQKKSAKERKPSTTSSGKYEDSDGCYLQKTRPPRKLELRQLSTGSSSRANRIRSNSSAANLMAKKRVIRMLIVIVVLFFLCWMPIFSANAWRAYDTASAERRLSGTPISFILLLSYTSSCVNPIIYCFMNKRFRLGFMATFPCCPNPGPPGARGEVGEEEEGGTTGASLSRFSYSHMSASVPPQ
The data set is described as follows: Agonist activity at human CCK1R expressed in human 1321N1 cells assessed as IP1 accumulation after 1 hr by HTRF assay. In kind it is functional, cell-based.

Data set [12] concerns the target T1, Cholecystokinin receptor type A. Nature of the data set: Displacement of [125I]-CCK-8 from human CCK1R expressed in human 1321N1 cell membranes after 2 hrs by SPA assay.
A short description of data set [13]: Chemical stability of the compound in sodium phosphate buffer assessed as loss of purity 1 mM at pH 7.4 at 37 degC after 2 weeks by UHLPC-UV analysis. The data set is classed as physicochemical. The note with it: read-out: Drug degradation.
The target in data set [14] is albumin (Homo sapiens, UniProt P02768). The data set is described as follows: Binding affinity to human serum albumin at 500 nM after 2 hrs by LC-MS analysis. As to conditions: read-out: PB (converted). In kind it is ADME.
A short description of data set [15]: Drug metabolism in Ellegaard Gottingen minipig plasma assessed as C18d-gammaGlu-(OEG)2-Asp-Phe(4sm)-Nle-Gly-OH peptide metabolite formation at 5 nmol/kg, iv administered as single dose by LC-MS/MS analysis. As to conditions: pig, in vivo. The data set is classed as ADME, organism-based, Sus scrofa.
Data set [16] is described as follows: Chemical stability of the compound in sodium phosphate buffer assessed as loss of purity 1 mM at pH 7.4 at 37 degC after 1 week by UHLPC-UV analysis. The data set is classed as physicochemical. As to conditions: read-out: Drug degradation.

Structures are written as SMILES. Numbered stars: 1 amine (or outer) side, 2 acyl side, 3 side chain; on linkers, the order of the positions; unused ones are H or OH. Square brackets hold non-standard residues; d marks the D form. Peptide text beside a SMILES is read from it. * marks the point of attachment. Phe(4-CH2SO3H) = N[C@@H](Cc1ccc(CS(=O)(=O)O)cc1)C(=O)O; C18 diacid = O=C(O)CCCCCCCCCCCCCCCCC(=O)*; γGlu = O=C(O)[C@H](CCC(=O)[*:2])N[*:1]; NMeF = CN[C@@H](Cc1ccccc1)C(=O)O; dNMeD = CN[C@H](CC(=O)O)C(=O)O; Nle = CCCC[C@H](N)C(=O)O; AEEA = NCCOCCOCC(=O)O

Chain of albumin (P02768 whole entry): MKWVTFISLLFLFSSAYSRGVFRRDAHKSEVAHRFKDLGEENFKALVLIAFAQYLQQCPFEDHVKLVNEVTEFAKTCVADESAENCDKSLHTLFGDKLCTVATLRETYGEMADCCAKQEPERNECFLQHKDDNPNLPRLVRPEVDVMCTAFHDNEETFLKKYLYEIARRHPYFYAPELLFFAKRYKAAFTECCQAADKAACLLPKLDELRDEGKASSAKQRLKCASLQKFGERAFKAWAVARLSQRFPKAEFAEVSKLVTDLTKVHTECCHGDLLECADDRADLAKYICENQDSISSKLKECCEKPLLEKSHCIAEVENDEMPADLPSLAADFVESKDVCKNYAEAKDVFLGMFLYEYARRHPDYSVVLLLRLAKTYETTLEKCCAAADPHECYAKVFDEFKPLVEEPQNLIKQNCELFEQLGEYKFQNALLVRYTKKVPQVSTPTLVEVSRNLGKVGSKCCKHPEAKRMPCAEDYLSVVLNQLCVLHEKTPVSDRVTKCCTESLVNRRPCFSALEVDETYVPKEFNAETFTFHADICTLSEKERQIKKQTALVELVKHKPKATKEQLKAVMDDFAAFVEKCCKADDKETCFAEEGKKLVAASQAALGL

Consider `CCCC[C@H](NC(=O)[C@H](Cc1ccc(CS(=O)(=O)O)cc1)NC(=O)[C@H](CC(=O)O)NC(=O)COCCOCCNC(=O)COCCOCCNC(=O)CC[C@H](NC(=O)CCCCCCCCCCCCCCCCC(=O)O)C(=O)O)C(=O)NCC(=O)N[C@@H](Cc1c[nH]c2ccccc12)C(=O)N[C@@H](CCCC)C(=O)N(C)[C@H](CC(=O)O)C(=O)N(C)[C@@H](Cc1ccccc1)C(N)=O` ({C18 diacid-γGlu-AEEA-AEEA}-D[Phe(4-CH2SO3H)][Nle]GW[Nle][dNMeD][NMeF]-NH2), for which the Drug metabolism entry in data set [1] is “Metabolite_Detected”; in [7], “Metabolite detected”; in data set [10], “Metabolite_Detected”; in data set [15] it was “Metabolite_Detected”. The Activity result in data set [2] was “Non-Toxic”; in data set [4], 1.5 kg; in data set [5] it was 1 kg; in data set [8], 1.9 kg; in data set [9], 1.1 kg. Further, the fraction unbound at 2 h, 0.5 µM in data set [3] and in data set [14] was 0.003 each time. The compound also gave a concentration at 96 h in [6] of 84.9 nM. For the same compound, the EC50 in data set [11] is 0.251 nM. Further, the IC50 in data set [12] was 0.0525 nM. In data set [13], the degraded at 336 h, 1000 µM stood at 2.2%. The degraded at 168 h, 1000 µM in data set [16] was 1.3%.
